In brackets after ≈: the same amount, converted by molar mass.
What was measured:
Type in all cases: functional, cell-based
KB = experiment: Cytotoxicity against drug-sensitive human KB cells
Jurkat = experiment: Cytotoxicity against human Jurkat cells
[1] = Cytotoxicity against vincristine-resistant human KB/VJ300 cells

Structure (SMILES)	IC50 (KB) [µg/mL]	IC50 (Jurkat) [µg/mL]	IC50 [1] [µg/mL]
CC(C)=C1CC[C@H]([C@H]2CC[C@@]3(C)[C@@H]4CC[C@H]5C(C)(C)[C@@H](O)C(=O)C[C@@]56C[C@@]46CC[C@]23C)[C@H](O)C1 [MONOCARPINE]	> 5		
COc1cc2c(c3c1=CC=N3)C(=O)C1=CC=CC(=O)NC=21 [MONOMARGININE]	4 (≈ 14.4 µM)	0.4 (≈ 1.44 µM)	2.6 (≈ 9.34 µM)
O=C1C=CC=C2C(=O)c3c4c(ccc3=C2N1)=CC=N4 [MONOMARGINE]	4.7 (≈ 18.9 µM)	0.7 (≈ 2.82 µM)	3 (≈ 12.1 µM)

Reference: ChEMBL document CHEMBL1157392, “A cycloartane incorporating a fused tetrahydrofuran ring and a cytotoxic lactam from Monocarpia marginalis” (J Nat Prod, 2008)
